# Where a name gives a salt, the structure may show the parent alone. Read-outs that look alike come from different tables or passages of the source.
# What was measured:
# stomach of the rat = assay: Test for ulcerogenic effect on the stomach of the rat; type: in vivo, rat (Chbb:THOM); conditions: oral, 3 subsequent days
# Experimental: (§1) (1) Test for ulcerogenic effect on the stomach of the rat
# (§2) The test was carried out on male and female (1:1) Chbb:THOM-rats with a body weight between 130 to 150 gm at the beginning of the study.
# (§3) The test substances (non-steroidal anti-phlogistics or mixtures of these antiphlogistics with pirenzepine dihydrochloride) were administered as triturations in 1% tylose (1 ml/100 gm animal) by way of an esophageal tube once a day on three successive days.
# (§4) Four hours after the last administration (i.e. on the 3rd day) the animals were killed by an over-dose of ether. The stomachs wer dissected, cut along the great curvature and washed under flowing water for subsequent macroscopic evaluation.
# [1] = tested on: kaolin-induced edema of the rat's hind paw; assay: Test for antiphlogistic effect against the kaolin-induced edema of the rat's hind paw; type: in vivo, rat (Chbb:THOM); conditions: oral, rat; for ED35: Rattus norvegicus, po, 5 h, kaolin edema, read-out: ED35; for Thickness of the paw (mean): 5 h after kaolin
# Experimental: (2) Test for antiphlogistic effect against the kaolin-induced edema of the rat's hind paw (tested substances: A, B, C and D)
# The test was carried out on male Chbb:THOM-rats with a body weight between 125 and 150 gm. According to HILLEBRECHT [Arzneimittel-Forsch. 4, 607 (1954)], a subplantary injection of 0.05 ml of a 10% suspension of kaolin in an aqueous 0.85% sodium chloride solution in the hind paw was used for the provocation of the kaolin edema. The other hind paw was subplantarily injected with the same volume of an aqueous 0.85% sodium chloride solution.
# The measurement of the thickness of the paws was carried out using the technique of DOEPFNER and […] [Int. Arch. Allergy appl. Immunol. 12, 89 (1958)] by way of the determination of the maximum sagittal diameter, using a measuring device with constant pressure, before and 5 hours after the provocation of the edema.
# The test substances (the non-steroidal antiphlogistics or the mixture of non-steroidal antiphlogistics with pirenzepine dihydrochloride) were administered 30 minutes before provocation of the edema as a trituration in 1% tylose (1 ml/[…]) by way of an esophageal tube.
# The diameter of the paw measured before the beginning of the test as well as the increase in diameter of the other paw caused by injection were subtracted from the diameter of the kaolin-treated paw, and this difference, being the real swelling value, was used for the further calculations.
# (§5) From the swelling values obtained by administration of different dosages of non-steroidal antiphlogistics with or without the addition of pirenzepine dihydrochloride, using a linear regression analysis according to LINDNER [Statistische Methoden, 4th Ed., pages 148-162, Birkhauser, Basel, Switzerland (1964)], the ED35 values of the antiphlogistics were calculated with the confidence limits according to FIELLER [Quart. J. Pharm. Pharmacol. 17, 117 (1944)], the ED35 being the dosage which reduces the swelling of the paws by 35% in comparison to the control animals.
# [2] = Test for ulcerogenic effect on the stomach of the rat; type: in vivo, rat (Chbb:THOM); conditions: in vivo, po
# Experimental: as §1, §2, §3, §4
# [3] = tested on: carrageenin-induced edema of the hind paw of the rat; assay: Test for antiphlogistic effect against the carrageenin-induced edema of the hind paw of the rat; type: in vivo; conditions: rat; for ED35: Rattus norvegicus, po, 3 h, carrageenin edema; for Thickness of the paw (mean): 3 h after carrageenin
# Experimental: The test was carried out in analogy to the above test for the kaolin-induced edema. However, the edema was induced according to the method of WINTER et al. [J. Pharmacol. 141, 369 (1963)] by subplantary injection of 0.05 ml of a 1% solution of carrageenin in an aqueous 0.85% solution of sodium chloride. […] Three hours after the provocation of the edema the measurement which provided the basis for the evaluation of an anti-exudative effect was carried out.
# as §5
# [4] = antiphlogistic 12.5 mgm/kg, without A
# [5] = antiphlogistic 25 mgm/kg + A 100 mgm/kg
# [6] = antiphlogistic 25 mgm/kg, without A
# [7] = antiphlogistic 50 mgm/kg + A 100 mgm/kg
# [8] = antiphlogistic 50 mgm/kg, without A
# [9] = antiphlogistic 100 mgm/kg, without A
structure (smiles),measurement,setting,value
"O=C(O)C=CC(O)c1ccc(-c2ccccc2F)cc1 (centres unmarked) [C, 4-[4-(2'-fluoro-biphenylyl)]-4-hydroxy-crotonic acid morpholine salt]",Ratio of animals with ulcers,"stomach of the rat; antiphlogistic 52 mgm/kg, without A",5/12
same,Ratio of animals with ulcers,stomach of the rat; antiphlogistic 62 mgm/kg + A 50 mgm/kg,4/15
same,Ratio of animals with ulcers,"stomach of the rat; antiphlogistic 62 mgm/kg, without A",8/12
same,Ratio of animals with ulcers,stomach of the rat; antiphlogistic 74 mgm/kg + A 50 mgm/kg,8/17
same,Ratio of animals with ulcers,stomach of the rat; antiphlogistic 74 mgm/kg + A 100 mgm/kg,0/15
same,Ratio of animals with ulcers,"stomach of the rat; antiphlogistic 74 mgm/kg, without A",10/12
same,Ratio of animals with ulcers,stomach of the rat; antiphlogistic 88 mgm/kg + A 50 mgm/kg,9/17
same,Ratio of animals with ulcers,stomach of the rat; antiphlogistic 88 mgm/kg + A 100 mgm/kg,4/15
same,Ratio of animals with ulcers,stomach of the rat; antiphlogistic 106 mgm/kg + A 50 mgm/kg,11/17
same,Ratio of animals with ulcers,stomach of the rat; antiphlogistic 106 mgm/kg + A 100 mgm/kg,3/15
same,Ratio of animals with ulcers,stomach of the rat; antiphlogistic 127 mgm/kg + A 100 mgm/kg,7/15
same,Ratio of animals with ulcers,stomach of the rat; antiphlogistic 153 mgm/kg + A 100 mgm/kg,8/15
same,ED35,[1]; with A 100 mgm/kg,17.6 mg/kg
same,ED35,[1]; without A,15.3 mg/kg
same,Thickness of the paw (mean),[1]; antiphlogistic 6.25 mgm/kg + A 100 mgm/kg,215.6 10^-2 mm
same,Thickness of the paw (mean),"[1]; antiphlogistic 6.25 mgm/kg, without A",203.9 10^-2 mm
same,Thickness of the paw (mean),[1]; antiphlogistic 12.25 mgm/kg + A 100 mgm/kg,187.0 10^-2 mm
same,Thickness of the paw (mean),[1]; [4],179.5 10^-2 mm
same,Thickness of the paw (mean),[1]; [5],166.0 10^-2 mm
same,Thickness of the paw (mean),[1]; [6],164.3 10^-2 mm
same,Thickness of the paw (mean),[1]; [7],149.3 10^-2 mm
same,Thickness of the paw (mean),[1]; [8],138.0 10^-2 mm
same,Thickness of the paw (mean),[1]; [9],93.8 10^-2 mm
"O=C([O-])Cc1ccccc1Nc1c(Cl)cccc1Cl.[Na+] [E, sodium [o-(2,6-dichloro-anilino)-phenyl]acetate]",Ratio of animals with ulcers,stomach of the rat; antiphlogistic 2 mgm/kg + A 200 mgm/kg,3/20
same,Ratio of animals with ulcers,stomach of the rat; antiphlogistic 2 mgm/kg + A 400 mgm/kg,1/20
same,Ratio of animals with ulcers,"stomach of the rat; antiphlogistic 2 mgm/kg, without A",5/20
same,Ratio of animals with ulcers,stomach of the rat; antiphlogistic 4 mgm/kg + A 200 mgm/kg,9/20
same,Ratio of animals with ulcers,stomach of the rat; antiphlogistic 4 mgm/kg + A 400 mgm/kg,7/20
same,Ratio of animals with ulcers,"stomach of the rat; antiphlogistic 4 mgm/kg, without A",14/20
same,Ratio of animals with ulcers,stomach of the rat; antiphlogistic 8 mgm/kg + A 200 mgm/kg,17/19
same,Ratio of animals with ulcers,stomach of the rat; antiphlogistic 8 mgm/kg + A 400 mgm/kg,13/20
same,Ratio of animals with ulcers,"stomach of the rat; antiphlogistic 8 mgm/kg, without A",19/20
same,Ratio of animals with ulcers,stomach of the rat; antiphlogistic 16 mgm/kg + A 200 mgm/kg,20/20
same,Ratio of animals with ulcers,stomach of the rat; antiphlogistic 16 mgm/kg + A 400 mgm/kg,19/20
same,TD50,"[2]; with A 200 mgm/kg, oral, 3 subsequent days, read-out: ED50-ulcer",4.05 mg/kg
same,TD50,"[2]; with A 400 mgm/kg, oral, 3 subsequent days, read-out: ED50-ulcer",5.63 mg/kg
same,TD50,"[2]; without A, oral, 3 subsequent days, read-out: ED50-ulcer",2.95 mg/kg
same,ED35,[3]; with A 400 mgm/kg,4.3 mg/kg
same,ED35,[3]; without A,5 mg/kg
same,Thickness of the paw (mean),"[3]; antiphlogistic 1.5 mgm/kg + A 400 mgm/kg, oral",209.5 10^-2 mm
same,Thickness of the paw (mean),"[3]; antiphlogistic 1.5 mgm/kg, without A, oral",209.5 10^-2 mm
same,Thickness of the paw (mean),"[3]; antiphlogistic 3.0 mgm/kg + A 400 mgm/kg, oral",181.5 10^-2 mm
same,Thickness of the paw (mean),"[3]; antiphlogistic 3 mgm/kg, without A, oral",188.5 10^-2 mm
same,Thickness of the paw (mean),"[3]; antiphlogistic 6.0 mgm/kg + A 400 mgm/kg, oral",162.5 10^-2 mm
same,Thickness of the paw (mean),"[3]; antiphlogistic 6 mgm/kg, without A, oral",170.0 10^-2 mm
same,Thickness of the paw (mean),"[3]; antiphlogistic 12.0 mgm/kg + A 400 mgm/kg, oral",148.5 10^-2 mm
same,Thickness of the paw (mean),"[3]; antiphlogistic 12 mgm/kg, without A, oral",154.0 10^-2 mm
"COc1ccc2cc([C@H](C)C(=O)O)ccc2c1 [F, d-2-(6-methoxy-2-naphthyl)-propionic acid]",ED35,"[3]; with A 400 mgm/kg, oral, read-out: ED35",3 mg/kg
same,ED35,"[3]; without A, oral, read-out: ED35",2.8 mg/kg
same,Thickness of the paw (mean),"[3]; antiphlogistic 2 mgm/kg + A 400 mgm/kg, oral",192.2 10^-2 mm
same,Thickness of the paw (mean),"[3]; antiphlogistic 2 mgm/kg, without A, oral",188.5 10^-2 mm
same,Thickness of the paw (mean),"[3]; antiphlogistic 4 mgm/kg + A 400 mgm/kg, oral",168.5 10^-2 mm
same,Thickness of the paw (mean),"[3]; antiphlogistic 4 mgm/kg, without A, oral",157.5 10^-2 mm
same,Thickness of the paw (mean),"[3]; antiphlogistic 8 mgm/kg + A 400 mgm/kg, oral",133.3 10^-2 mm
same,Thickness of the paw (mean),"[3]; antiphlogistic 8 mgm/kg, without A, oral",118.0 10^-2 mm
"CC(C)Cc1ccc(C(C)C(=O)O)cc1 (centres unmarked) [H, 2-(4-isobutylphenyl)-propionic acid]",Ratio of animals with ulcers,stomach of the rat; [4],0/20
same,Ratio of animals with ulcers,stomach of the rat; [5],6/20
same,Ratio of animals with ulcers,stomach of the rat; antiphlogistic 25 mgm/kg + A 400 mgm/kg,1/20
same,Ratio of animals with ulcers,stomach of the rat; [6],8/20
same,Ratio of animals with ulcers,stomach of the rat; [7],11/20
same,Ratio of animals with ulcers,stomach of the rat; antiphlogistic 50 mgm/kg + A 400 mgm/kg,11/20
same,Ratio of animals with ulcers,stomach of the rat; [8],15/20
same,Ratio of animals with ulcers,stomach of the rat; antiphlogistic 100 mgm/kg + A 100 mgm/kg,18/20
same,Ratio of animals with ulcers,stomach of the rat; antiphlogistic 100 mgm/kg + A 400 mgm/kg,16/20
same,Ratio of animals with ulcers,stomach of the rat; [9],19/20
same,Ratio of animals with ulcers,stomach of the rat; antiphlogistic 200 mgm/kg + A 100 mgm/kg,20/20
same,Ratio of animals with ulcers,stomach of the rat; antiphlogistic 200 mgm/kg + A 400 mgm/kg,19/20
same,Ratio of animals with ulcers,"stomach of the rat; antiphlogistic 200 mgm/kg, without A",20/20
same,TD50,[2]; ED50-ulcer,31 mg/kg
same,ED35,[3]; with A 400 mgm/kg,34.2 mg/kg
same,ED35,[3]; without A,39.6 mg/kg
same,Thickness of the paw (mean),"[3]; antiphlogistic 20 mgm/kg + A 400 mgm/kg, oral",204.0 10^-2 mm
same,Thickness of the paw (mean),"[3]; antiphlogistic 20 mgm/kg, without A, oral",210.0 10^-2 mm
same,Thickness of the paw (mean),"[3]; antiphlogistic 40 mgm/kg + A 400 mgm/kg, oral",170.0 10^-2 mm
same,Thickness of the paw (mean),"[3]; antiphlogistic 40 mgm/kg, without A, oral",167.0 10^-2 mm
same,Thickness of the paw (mean),"[3]; antiphlogistic 80 mgm/kg + A 400 mgm/kg, oral",131.7 10^-2 mm
same,Thickness of the paw (mean),"[3]; antiphlogistic 80 mgm/kg, without A, oral",141.5 10^-2 mm
